{"source": "PubChem BioAssay (NCI)", "experiment_in_all_cases": "NCI tumour cell line growth inhibition, 48 h", "key": {"P388/ADR leukemia": {"system": "P388/ADR leukemia"}, "ACHN renal": {"system": "ACHN renal"}, "MDA-N": {"system": "MDA-N"}, "M14 melanoma": {"system": "M14 melanoma"}, "SR leukemia": {"system": "SR leukemia"}, "TK-10 renal": {"system": "TK-10 renal"}, "M19-MEL melanoma": {"system": "M19-MEL melanoma"}, "XF 498 CNS": {"system": "XF 498 CNS"}}, "note": "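Values below derive from 48-hour exposures of cells grown in 96-well plates, with endpoints linearly interpolated between the two concentrations bracketing the appropriate inhibition level. TGI: total growth inhibition.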"}
{"smiles": "CCCn1cc2c3c(cccc31)C1C=C(C)CN(C)C1C2", "note": "(stereo not drawn)", "values": [{"measurement": "TGI", "setting": "P388/ADR leukemia", "result": 43.2, "unit": "µM"}]}
{"smiles": "CCOC(=O)c1csc(NC(=O)CCN2CCN(C)CC2)n1", "values": [{"measurement": "TGI", "setting": "ACHN renal", "result": "> 100", "unit": "µM"}, {"measurement": "TGI", "setting": "MDA-N", "result": "> 100", "unit": "µM"}, {"measurement": "TGI", "setting": "M14 melanoma", "result": "> 100", "unit": "µM"}, {"measurement": "TGI", "setting": "SR leukemia", "result": "> 100", "unit": "µM"}, {"measurement": "TGI", "setting": "TK-10 renal", "result": "> 100", "unit": "µM"}]}
{"smiles": "COc1cc(N=Nc2ccc(OC)c(S(=O)(=O)O)c2)c(C)cc1N=Nc1ccc(/C=C/c2ccc(N=[N+]([O-])c3ccc(/C=C/c4ccc(N=Nc5cc(C)c(N=Nc6ccc(OC)c(S(=O)(=O)O)c6)cc5OC)cc4S(=O)(=O)O)c(S(=O)(=O)O)c3)cc2S(=O)(=O)O)c(S(=O)(=O)O)c1", "values": [{"measurement": "TGI", "setting": "M19-MEL melanoma", "result": "> 100", "unit": "µM"}, {"measurement": "TGI", "setting": "XF 498 CNS", "result": "> 100", "unit": "µM"}]}
